According to patent US9958433B2, “Method and system for in vitro developmental toxicity testing” (Agency for Science, Technology and Research, priority 2012, dated 2018):
Where two headings read alike, the source gives them in different places.

How the values were obtained:
[1] = tested on: micropatterned hESC colonies; experiment: Micropatterned hESC mesoendoderm pattern disruption (Brachyury immunofluorescence, Asymmetrical Ratio); details: for Asymmetrical Ratio decrease relative to untreated control: 3 days of differentiation, control ratio 3; for Asymmetrical Ratio after treatment (average intensity ratio of ring area to off-ring area): human, 3 days
Description: In order to generate gradients of mechanical stress, circle or square shapes of Matrigel matrix with two different sizes (785000 μm2 or 196250 μm2) were designed using AutoCAD software. Then polydimethylsiloxane (PDMS) stencils were fabricated by using a laser-cutter (Universal Laser System) to cut the designated shape patterns on a 127 μm thick PDMS sheet (Specialty Silicone Products Inc.) and then bonding it to a laser-cut, 2 mm thick PDMS gasket. For cell patterning, the PDMS stencil was first sealed into a 60 mm petri dish by adding 200 μl 70% ethanol and dried in the tissue culture hood, then Matrigel™ (BD Biosciences) matrix was coated by at least hour incubation with the Matrigel™ solution (FIG. 1). Thereafter cells were seeded at a density of 4 million cells/ml. After 1 hour incubation for cell attachment, the stencil and excess unattached cells were removed. The surface was then passivated with 0.5% pluronic acid for 10 mins before 3-time washing. The acquired patterned hESC were incubated overnight in mTesR1 maintenance medium (StemCell Technologies) for stabilization and the mesoendoderm induction was started the next day.
The differentiation of patterned hESC colonies were induced by mesoendoderm induction medium, which comprises of 100 ng/ml Activin, 25 ng/ml BMP4 and 10 ng/ml FGF2 in basal serum-free APEL™ medium (STEMdiff™, StemCell Technologies). For developmental toxicity testing, the patterned hESC colonies were cultured in mesoendoderm induction medium together with the test chemical. The induction lasted 3 days and the medium is half changed daily with/without the test chemical.
Samples were fixed on Day 3 of differentiation. Immunofluorescence staining was done to check the expression distribution of early mesoendodermal marker Brachyury. Image acquisition was done under 10× objective using Olympus fluorescence microscope and Asymmetrical Ratio was calculated using MATLAB programming (FIG. 5). Results
Three known teratogens (0.1 mM Valproic acid (VPA), 0.05 ug/ml 5-Fluorouracil (5-FU), and 0.8 mM Thalidomide) were tested using this model. Mesoendoderm induction medium together with the drug was added into our model and incubated for 3 days before the samples were fixed for immunofluorescence staining of Brachyury. Half of the medium was changed daily with the drug. An untreated control which was only cultured in mesoendoderm induction medium without any drug was also done. […] In order to measure the disruption, we used Asymmetrical Ratio as a parameter to evaluate the asymmetrical patterns with or without drug treatment, which indicate the average intensity ratio of “ring” area to “off-ring” area (FIG. 5).

μP-hESC colonies = experiment: PCA of morphological features of mesoendoderm motif in μP-hESC colonies (dose-dependent developmental toxicity)
Procedure: Alterations to the different morphological features of the mesoendoderm structural motif were quantitatively measured by image processing at different concentrations of drugs. These morphological features at different drug concentrations were analyzed with principal component analysis (PCA). A data point represents each morphological feature; the data point color represents the drug concentration used in the treatment. […] Data Collection Process: 1. Treat our μP-hESC colonies with 3 different concentrations of each drug and fix the samples on day 3 together with the untreated normal control samples. Acquire T immunofluorescence images of samples under Olympus fluorescence microscope. 2. Process all the T fluorescence images using Matlab to extract all the relevant morphological features of the samples representing the spatial distribution of the mesoendoderm motif (T^+ positive region in the images).

μP-hESC colony = experiment: Live imaging / kymograph of collective cell migration in μP-hESC colony under drug treatment; assay type: cell-based, human
Description: Spatially localized differentiated cells (at edge of stem cell colony) underwent coordinated cell movement to form a 3D-like structural motif as observed by live imaging (FIG. 8D). The trajectory of the coordinated cell movement can be seen from a space-time plot (kymograph) of the differentiating stem cells (FIG. 8E).

[2] = tested on: adult human dermal fibroblasts (aHDFs); experiment: Cytotoxicity test (MTS) on adult fibroblasts; details: at the drug's effective concentration (EC)
hESC cell line H9 [3] = experiment: Cytotoxicity test (MTS) on hESC; details: at the drug's effective concentration (EC)
human = details: cited from earlier work
hESC cell line H9 [4] = tested on: hESC cell line H9
[5] = tested on: adult human dermal fibroblasts (aHDFs)

O=c1[nH]cc(F)c(=O)[nH]1 [5-FU, 5-Fluorouracil]
Asymmetrical Ratio decrease relative to untreated control ([1]; 0.05 μg/ml 5-FU): 46.7%
Asymmetrical Ratio after treatment (average intensity ratio of ring area to off-ring area) ([1]; 0.05 μg/ml): 1.6

CC1(C)S[C@@H]2[C@H](NC(=O)Cc3ccccc3)C(=O)N2[C@H]1C(=O)O [Penicillin G]
Localization of the mesoendoderm motif (T+ region) ([1]; day3, FIG. 9B): remained unchanged
PCA clustering of morphological features by drug concentration (μP-hESC colonies; 3 concentrations of each drug, day 3): cannot be segregated
Drug classification by developmental toxicity effect (μP-hESC colonies; based on PCA and cytotoxicity test (MTS) results): non-developmental toxic
Concentrations at which spatial distribution of mesoendoderm motif was significantly disrupted (PCA) (μP-hESC colonies; day 3, μP-hESC colonies): > 1000 µg/mL
Effective concentration (lowest concentration which significantly disrupted spatial localization of mesoendoderm motif) (μP-hESC colonies; μP-hESC models): above 1000 μg/ml
Trajectories of collective cell migration (kymograph) (μP-hESC colony; day2-3 of differentiation): unaffected

CC1=C(/C=C/C(C)=C/C=C/C(C)=C/C(=O)O)C(C)(C)CCC1 [RA, retinoic acid]
Toxicity to aHDFs [2]: not toxic
Toxicity to H9 cells (hESC cell line H9 [3]): not toxic
Drug classification by developmental toxicity effect (μP-hESC colonies): teratogenic
Concentrations at which spatial distribution of mesoendoderm motif was significantly disrupted (PCA) (μP-hESC colonies; human, 3 days): >= 0.0036 μg/ml
Effective concentration (lowest concentration which significantly disrupted spatial localization of mesoendoderm motif) (μP-hESC colonies; human, 3 days): ~0.0036 µg/mL

O=C1CCC(N2C(=O)c3ccccc3C2=O)C(=O)N1 (stereo not shown) [Thalidomide]
Localization of the mesoendoderm motif (T+ region) [1]: misplaced
Asymmetrical Ratio decrease relative to untreated control ([1]; 0.8 mM Thalidomide): ~70%
Asymmetrical Ratio after treatment (average intensity ratio of ring area to off-ring area) ([1]; 0.8 mM): ~0.9
Toxicity to aHDFs [2]: not toxic
H9 cell survival (hESC cell line H9 [3]): > 50%
Toxicity to H9 cells (hESC cell line H9 [3]): toxic
Drug classification by developmental toxicity effect (μP-hESC colonies): both teratogenic and embryotoxic
Concentrations at which spatial distribution of mesoendoderm motif was significantly disrupted (PCA) (μP-hESC colonies; human, 3 days): >= 300 μM
Effective concentration (lowest concentration which significantly disrupted spatial localization of mesoendoderm motif) (μP-hESC colonies; human, 3 days): ~300 µM
Trajectories of collective cell migration (kymograph) (μP-hESC colony): disrupted
Developmental deformation (human): causes developmental deformation in human

CCCC(CCC)C(=O)O [VPA, Valproic acid]
Localization of the mesoendoderm motif (T+ region) [1]: misplaced
Asymmetrical Ratio decrease relative to untreated control ([1]; 0.1 mM VPA): ~70%
Asymmetrical Ratio after treatment (average intensity ratio of ring area to off-ring area) ([1]; 0.1 mM): ~0.9
Toxicity to H9 cells (hESC cell line H9 [4]): very toxic
H9 cell survival (hESC cell line H9 [4]; human): ~20%
Toxicity to aHDFs [5]: a little toxic
Drug classification by developmental toxicity effect (μP-hESC colonies): very embryotoxic
Concentrations at which spatial distribution of mesoendoderm motif was significantly disrupted (PCA) (μP-hESC colonies; human, 3 days): >= 0.8 mM
Effective concentration (lowest concentration which significantly disrupted spatial localization of mesoendoderm motif) (μP-hESC colonies; human, 3 days): ~800 µM
Trajectories of collective cell migration (kymograph) (μP-hESC colony): disrupted
